MIC and Solubility data for 3 compounds are collected here from patent EP0596112A1, “NOVEL MACROLIDE COMPOUND AND PRODUCTION THEREOF” (YAMANOUCHI PHARMACEUTICAL CO. LTD., priority 1991, dated 1992).

The test system of one data set is Proteus vulgalis OX-19. The data set can be described thus: In vitro antibacterial activity (MIC), agar plate dilution method using Müller-Hinton medium. In kind it is cell-based. On the procedure: (§1) In vitro antibacterial activity (MIC) The antibacterial spectrum of the macrolide compound of the present invention was determined by the agar plate dilution method using Müller-Hinton medium which is commonly used for this purpose.

Data set [1] deals with Klebsiella pneumoniae ATTCC10031. The data set is described as above. It counts as cell-based. On the procedure: as §1
Data set [2] deals with Serratia marcescens IID620. The description is as above. In kind it is cell-based. On the procedure: as §1
A further data set has as its system Escherichia coli 0-1. The data set is described as above. Particulars: 01. In kind it is cell-based. On the procedure: as §1
In data set [3] the test system is Staphylococcus epidermidis IID866. The description is as above. In kind it is cell-based. The method, then: as §1
Data set [4] relates to Enterococcus faecalis IID682. Described as above. In kind it is cell-based. The method, then: as §1
Data set [5] deals with Streptococcus pneumoniae IID552. Described as above. In kind it is cell-based. The method, then: as §1
The test system of data set [6] is Staphylococcus aureus FDA 209P. The description is as above. It counts as cell-based. Particulars: FDA209P. The method, then: as §1
For data set [7], the system named is Streptococcus pyogenes Cook. The description is as above. It counts as cell-based. The method, then: as §1
Data set [8] relates to Pseudomonas aeruginosa IID5142. Described as above. In kind it is cell-based. On the procedure: as §1
The nature of data set [9]: Solubility (physicochemical properties).
The subject of data set [10] is Staphylococcus aureus FDA 209P JC-1. The data set can be described thus: In vitro antibacterial activity (MIC), agar plate dilution method using Müller-Hinton medium. In kind it is cell-based. Particulars: FDA209P. The method, then: as §1
[11] abbreviates: in methanol, ethanol, acetone, ethyl acetate, benzene, toluene and chloroform.

Molecules are shown by their SMILES. Values after ≈ are worked out from the molar mass of the structure shown.

Take `COC1C(OCC(C)C2OC(=O)C(C)C(OC3CC(C)(O)C(O)C(C)O3)C(C)C(OC3OC(C)CC(=O)C3O)C(C)CC(C)(O)C(=O)C(C)C(OC(=O)CC(C)C)C2C)OC(C)C(O)C1OC` (stereo not drawn) [YL-02107Q substance]: the MIC (in general, the lowest concentration found to suppress growth) with Proteus vulgalis OX-19 is more than 100 µg/mL; in data set [1], more than 100 µg/mL; in data set [2], more than 100 µg/mL; against Escherichia coli 0-1 it was more than 100 µg/mL; in data set [3], 0.78 µg/mL (≈ 0.81 µM); in [4], 1.56 µg/mL (≈ 1.62 µM). Moreover, the MIC in data set [5] was 3.13 µg/mL (≈ 3.25 µM); in [6], 0.78 µg/mL (≈ 0.81 µM); in data set [7] it was 0.39 µg/mL (≈ 0.405 µM); in data set [8] it was more than 100 µg/mL. Further, the Solubility result is recorded as “Soluble” in data set [9] (setting [11]); “only sparingly soluble” in data set [9] (in water and hexane).

As to `COC1C(OCC(C)C2OC(=O)C(C)C(OC3CC(O)C(O)C(C)O3)C(C)C(OC3OC(C)CC(=O)C3O)C(C)CC(C)(O)C(=O)C(C)C(OC(=O)CC(C)C)C2C)OC(C)C(O)C1OC` (stereo not drawn) [YL-02107Q-B substance], the MIC with Proteus vulgalis OX-19 is more than 50 µg/mL; in data set [1] it was more than 50 µg/mL; in data set [2], more than 50 µg/mL; in the data set with Escherichia coli 0-1, more than 50 µg/mL; in [3], 3.13 µg/mL (≈ 3.3 µM); in data set [4] it was 25 µg/mL (≈ 26.3 µM). For the same compound, the MIC was 50 µg/mL (≈ 52.7 µM) in [5], 0.78 µg/mL (≈ 0.822 µM) in [7], 3.13 µg/mL (≈ 3.3 µM) in [10] and more than 50 µg/mL in [8]. For the same compound, the Solubility entry in data set [9] (setting [11]) was “Soluble”; in data set [9] (in water and hexane), “only sparingly soluble”.

As to `COC1C(OCC(C)C2OC(=O)C(C)C(OC3CC(C)(O)C(O)C(C)O3)C(C)C(OC3OC(C)CC(=O)C3O)C(C)CC(C)(O)C(=O)C(C)C(O)C2C)OC(C)C(O)C1OC` (stereo not drawn) [YL-02107Q-D substance], the minimum inhibitory concentration (MIC) with Proteus vulgalis OX-19 is more than 50 µg/mL; in data set [1] it was more than 50 µg/mL; in data set [2], more than 50 µg/mL; with Escherichia coli 0-1, more than 50 µg/mL; in [3], 1.56 µg/mL (≈ 1.77 µM); in data set [4], more than 50 µg/mL. Also, the MIC in [5] was more than 50 µg/mL; in data set [7] it was 0.78 µg/mL (≈ 0.887 µM); in data set [10] it was 3.13 µg/mL (≈ 3.56 µM); in [8] it was more than 50 µg/mL. For the same compound, the Solubility entry in data set [9] (setting [11]) is “Soluble”; in data set [9] (in water and hexane), “only sparingly soluble”.
